Literature values as cited in patent publication US11938119B2, “Cannabis production systems and methods” ([…], LLC, priority 2017, dated 2024).

Settings: stated "in embodiments"; no solvent system or method printed

Row | SMILES | partition coefficient
1 | CCCCCc1cc(O)c2c(c1)OC(C)(C)[C@@H]1CCC(C)=C[C@@H]21 [tetrahydrocannabinol] | 6.99
2 | C=C(C)[C@@H]1CCC(C)=C[C@H]1c1c(O)cc(CCCCC)cc1O [cannabidiol] | 5.79
